Columns and labels:
Assay type in all cases: in vivo
Abutilon theophrasti [1] = assay: Pre-emergence herbicidal action against ABUTH; settings: visual score after 3 weeks vs untreated controls
Procedure, shortened: (§1)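 Sandy loam pots, seeds covered with soil, then surface-treated with WP or EC formulations at 600–800 l/ha water plus 0.2% wetting agent. Greenhouse, 3 weeks. Percent damage vs untreated controls.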

Alopecurus myosuroides [2] = assay: Pre-emergence herbicidal action against ALOMY; settings: 80 g/ha; visual score after 3 weeks vs untreated controls
Procedure, shortened: as §1

Amaranthus retroflexus [3] = assay: Pre-emergence herbicidal action against AMARE; settings: visual score after 3 weeks vs untreated controls
Procedure, shortened: as §1

Avena fatua [4] = assay: Pre-emergence herbicidal action against AVEFA; settings: 80 g/ha; visual score after 3 weeks vs untreated controls
Procedure, shortened: as §1

Echinochloa crus-galli [5] = assay: Pre-emergence herbicidal action against ECHCG; settings: 80 g/ha; visual score after 3 weeks vs untreated controls
Procedure, shortened: as §1

Matricaria inodora [6] = assay: Pre-emergence herbicidal action against MATIN; settings: visual score after 3 weeks vs untreated controls
Procedure, shortened: as §1

Lolium rigidum = assay: Pre-emergence herbicidal action against LOLRI; settings: 80 g/ha
From the text: Seeds of monocotyledonous and dicotyledonous weed plants and crop plants are laid out in sandy loam soil in wood-fiber pots and covered with soil. The compounds of the invention, formulated in the form of wettable powders (WP) or as emulsion concentrates (EC), are then applied to the surface of the covering soil in the form of an aqueous suspension or emulsion at a water application rate equivalent to 600 to 800 l/ha, with addition of 0.2% wetting agent. After the treatment, the pots are placed in a greenhouse and kept under good growth conditions for the trial plants. The damage to the test plants is scored visually after a test period of 3 weeks by comparison with untreated controls (herbicidal activity in percent (%): 100% activity=the plants have died, 0% activity=like control plants). […] The tables below illustrate, in an illustrative manner, the post-emergence herbicidal action of the compounds of the invention, the herbicidal activity being stated in percent.

Setaria viridis [7] = assay: Pre-emergence herbicidal action against SETVI; settings: 80 g/ha
Procedure, shortened: as §1

Veronica persica [8] = assay: Pre-emergence herbicidal action against VERPE; settings: 80 g/ha
Procedure, shortened: as §1

Viola tricolor [9] = assay: Pre-emergence herbicidal action against VIOTR; settings: 80 g/ha
Procedure, shortened: as §1

Abutilon theophrasti [10] = assay: Post-emergence herbicidal action against ABUTH
Procedure, shortened: (§2)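 Herbicidal action is a visual percentage rating (0% = as untreated control, 100% = plants dead) made roughly 3 weeks after treatment. Plants were grown in sandy loam in the greenhouse and treated at the one-leaf stage, 2 to 3 weeks post-sowing. Treatment was a foliar spray of wettable-powder or emulsion-concentrate formulations at 600 to 800 l/ha water plus 0.2% wetting agent.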

Alopecurus myosuroides [11] = assay: Post-emergence herbicidal action against ALOMY
Procedure, shortened: as §2

Amaranthus retroflexus [12] = assay: Post-emergence herbicidal action against AMARE; settings: visual assessment about 3 weeks after treatment
Procedure, shortened: as §2

Matricaria inodora [13] = assay: Post-emergence herbicidal action against MATIN; settings: visual assessment about 3 weeks after treatment
Procedure, shortened: as §2

Pharbitis purpurea = assay: Post-emergence herbicidal action against PHBPU; settings: visual assessment about 3 weeks after treatment
Procedure, shortened: as §2

Digitaria sanguinalis = assay: Post-emergence herbicidal action against DIGSA
Procedure: Seeds of monocotyledonous and dicotyledonous weed and crop plants are laid out in sandy loam soil in wood-fiber pots, covered with soil and cultivated in a greenhouse under good growth conditions. 2 to 3 weeks after sowing, the test plants are treated at the one-leaf stage. The compounds of the invention, formulated in the form of wettable powders (WP) or as emulsion concentrates (EC), are then sprayed onto the green parts of the plants in the form of an aqueous suspension or emulsion at a water application rate equivalent to 600 to 800 l/ha, with addition of 0.2% wetting agent. After the test plants have been left to stand in the greenhouse under optimal growth conditions for about 3 weeks, the action of the preparations is assessed visually in comparison to untreated controls (herbicidal action in percent (%): 100% activity=the plants have died, 0% activity=like control plants). […] The tables below illustrate, in an illustrative manner, the post-emergence herbicidal action of the compounds of the invention, the herbicidal activity being stated in percent.

Setaria viridis [14] = assay: Post-emergence herbicidal action against SETVI; settings: visual assessment about 3 weeks after treatment
Procedure, shortened: as §2

Viola tricolor [15] = assay: Post-emergence herbicidal action against VIOTR; settings: 20 g/ha
Procedure, shortened: as §2

Avena fatua [16] = assay: Post-emergence herbicidal action against AVEFA; settings: 20 g/ha, visual assessment about 3 weeks after treatment
Procedure, shortened: as §2

Echinochloa crus-galli [17] = assay: Post-emergence herbicidal action against ECHCG; settings: 20 g/ha, visual assessment about 3 weeks after treatment
Procedure, shortened: as §2

Veronica persica [18] = assay: Post-emergence herbicidal action against VERPE; settings: 20 g/ha, visual assessment about 3 weeks after treatment
Procedure, shortened: as §2

| SMILES | Pre-emergence action against ABUTH (Abutilon theophrasti [1]; 20 g/ha) | Pre-emergence action against ABUTH (Abutilon theophrasti [1]; 80 g/ha) | Pre-emergence action against ALOMY (Alopecurus myosuroides [2]) | Pre-emergence action against AMARE (Amaranthus retroflexus [3]; 20 g/ha) | Pre-emergence action against AMARE (Amaranthus retroflexus [3]; 80 g/ha) | Pre-emergence action against AVEFA (Avena fatua [4]) | Pre-emergence action against ECHCG (Echinochloa crus-galli [5]) | Pre-emergence action against MATIN (Matricaria inodora [6]; 20 g/ha) | Pre-emergence action against MATIN (Matricaria inodora [6]; 80 g/ha) | Pre-emergence action against LOLRI (Lolium rigidum) | Pre-emergence action against SETVI (Setaria viridis [7]) | Pre-emergence action against VERPE (Veronica persica [8]) | Pre-emergence action against VIOTR (Viola tricolor [9]) | Post-emergence action against ABUTH (Abutilon theophrasti [10]; 5 g/ha) | Post-emergence action against ABUTH (Abutilon theophrasti [10]; 20 g/ha) | Post-emergence action against ALOMY (Alopecurus myosuroides [11]; 20 g/ha) | Post-emergence action against AMARE in % (Amaranthus retroflexus [12]; 5 g/ha) | Post-emergence action against AMARE in % (Amaranthus retroflexus [12]; 20 g/ha) | Post-emergence action against MATIN in % (Matricaria inodora [13]; 20 g/ha) | Post-emergence action against PHBPU in % (Pharbitis purpurea; 5 g/ha) | also measured |
| --- | --- | --- | --- | --- | --- | --- | --- | --- | --- | --- | --- | --- | --- | --- | --- | --- | --- | --- | --- | --- | --- |
| CCN(C)C(=O)c1c(C(F)F)ccc(C(=O)Nc2nnnn2CC)c1Cl [Example 2-155] | 100% | 100% | 90% | 100% | 100% | 90% | 100% | 80% | 100% | 90% | 100% | 90% | 100% | 80% | 90% | 90% | 100% | 100% | 90% | 80% | Post-emergence action against MATIN in % (Matricaria inodora [13]; 5 g/ha): 80%; Post-emergence action against PHBPU in % (Pharbitis purpurea; 20 g/ha): 80%; Post-emergence action against DIGSA in % (Digitaria sanguinalis; 5 g/ha): 80%; Post-emergence action against DIGSA in % (Digitaria sanguinalis; 20 g/ha): 80%; Post-emergence action against SETVI in % (Setaria viridis [14]; 5 g/ha): 80%; Post-emergence action against SETVI in % (Setaria viridis [14]; 20 g/ha): 100%; Post-emergence action against VIOTR in % (Viola tricolor [15]): 80% |
| CCN(C)C(=O)c1c(C(F)F)ccc(C(=O)Nc2nnnn2C)c1Cl [Example 1-155] | 100% | 100% | 90% | 100% | 100% | 90% | 100% | 90% | 100% | 80% | 100% | 90% | 100% | 90% | 90% | 90% | 100% | 100% | 90% | 80% | Post-emergence action against ALOMY (Alopecurus myosuroides [11]; 5 g/ha): 80%; Post-emergence action against AVEFA in % (Avena fatua [16]): 80%; Post-emergence action against ECHCG in % (Echinochloa crus-galli [17]): 90%; Post-emergence action against PHBPU in % (Pharbitis purpurea; 20 g/ha): 80%; Post-emergence action against DIGSA in % (Digitaria sanguinalis; 5 g/ha): 80%; Post-emergence action against DIGSA in % (Digitaria sanguinalis; 20 g/ha): 80%; Post-emergence action against SETVI in % (Setaria viridis [14]; 5 g/ha): 80%; Post-emergence action against SETVI in % (Setaria viridis [14]; 20 g/ha): 90%; Post-emergence action against VERPE in % (Veronica persica [18]): 80%; Post-emergence action against VIOTR in % (Viola tricolor [15]): 80% |
